Data published in patent publication US20250275539A1, “APYRASE INHIBITORS” (Texas Crop Science, Inc., priority 2024, published 2025).

The compounds below were run on apyrase (assay: Apyrase inhibition assay (screen for apyrase inhibitors, phosphate release read at 630 nm)). Settings: inhibitor conc at 1 mM (10 μl added), 3 mM ATP, pH 6.5, room temperature 1 hr.
Assay type: biochemical
Method: Apyrase inhibitors useful as enhancers of pesticidal activity are assessed using an in vitro assay. The method of Windsor, Bio Techniques 33:1024-1030 (November 2002) was used as follows
• 96 well plates were used for the assay: (Greiner bio-one: REF-655901-96 well, PS, F-bottom, Clear, Non-binding)
• Reaction Buffer: 60 mM Hepes; 3 mM MgCl2, 3 mM CaCl2) and 3 mM ATP (pH 6.5) • Development Buffer A: 2% aqueous ammonium molybdate • Development Buffer B: 11% ascorbic acid in 37.5% TCA in water • Stop buffer C: 2% trisodium citrate in 2% acetic acid solution in water
• Add 100 μl of reaction buffer to each well. • Add 10 μl of DMSO (control) or inhibitor/compound or compounds such as N1915 or orthovanadate to each well. (use inhibitor conc at 1 mM; orthovanadate at 2 mM and N1915 at 1 mM) • Add 10 μl of apyrase (concentration based on optimization—Dilute 1 U/μl enzyme to different concentrations such as 0.1 U, 0.05 U, 0.0025, 0.001 U, 0.0005 U—to find a good range) • Incubate plate at room temperature for 1 hr • Mix development buffer A and B in the ratio of 1:1.5 (just before use). • Add 50 μl of A: B mix in each well (incubate for 2 mins) • Add 50 μl of C in each well • Measure/Read Absorbance of plate @630 nm
Inhibitory data for the apyrase assay described above are provided for selected compounds in Table 3. D is inhibition of 0% to 10%, C is inhibition from 10% to 20%, B is inhibition from 20% to 30%, and A is inhibition above 30%. Blank entries signify compounds that were not tested.
With `COc1ccc(OC)c(NS(=O)(=O)c2ccc(-c3ccccc3)cc2)c1` [Compound A-4, N-(2,5-dimethoxyphenyl)-[1,1′-biphenyl]-4-sulfonamide] the Inhibition was “B (B is inhibition from 20% to 30%)”.
For `CCCc1ccc(S(=O)(=O)Nc2ccccc2N2CCCC2=O)cc1` [Compound A-6, N-(2-(2-oxopyrrolidin-1-yl)phenyl)-4-propylbenzenesulfonamide], the Inhibition was “D (D is inhibition of 0% to 10%)”.
For `CCCc1ccc(S(=O)(=O)Nc2cccc(N3CCCC3=O)c2)cc1` [Compound A-7, N-(3-(2-oxopyrrolidin-1-yl)phenyl)-4-propylbenzenesulfonamide], the Inhibition was “C (C is inhibition from 10% to 20%)”.
With `O=S(=O)(c1ccc(-c2ccccc2)cc1)N1CCN(C2CCOCC2)CC1` [Compound A-11, 1-([1,1′-biphenyl]-4-ylsulfonyl)-4-(tetrahydro-2H-pyran-4-yl)piperazine] the Inhibition was “D (D is inhibition of 0% to 10%)”.
With `COC(=O)c1ccc(S(=O)(=O)Nc2cccc(C)c2)cc1` [Compound A-12, methyl 4-(N-(m-tolyl)sulfamoyl)benzoate] the Inhibition was “C (C is inhibition from 10% to 20%)”.
In the case of `O=S(=O)(Nc1nnc[nH]1)c1ccc(-c2ccccc2)cc1` [Compound A-13, N-(4H-1,2,4-triazol-3-yl)-[1,1′-biphenyl]-4-sulfonamide], the Inhibition is reported as “D (D is inhibition of 0% to 10%)”.
With `O=S(=O)(Nc1cc(-c2cccnc2)n[nH]1)c1ccc(-c2ccccc2)cc1` [Compound A-14, N-(3-(pyridin-3-yl)-1H-pyrazol-5-yl)-[1,1′-biphenyl]-4-sulfonamide] the Inhibition was “D (D is inhibition of 0% to 10%)”.
With `Cl.NCCNS(=O)(=O)c1ccc(-c2ccccc2)cc1` [Compound A-15, N-(2-aminoethyl)-[1,1′-biphenyl]-4-sulfonamide hydrochloride] the Inhibition was “D (D is inhibition of 0% to 10%)”.
`CCCc1ccc(S(=O)(=O)Nc2c(F)cccc2CO)cc1` [Compound A-16, N-(2-fluoro-6-(hydroxymethyl)phenyl)-4-propylbenzenesulfonamide] was tested, and the Inhibition was “C (C is inhibition from 10% to 20%)”.
For `Cc1cccc(NS(=O)(=O)c2ccc(C(N)=O)cc2)c1` [Compound A-18, 4-(N-(m-tolyl)sulfamoyl)benzamide], the Inhibition was “C (C is inhibition from 10% to 20%)”.
For `CCCc1ccc(S(=O)(=O)Nc2ccc(CC(C)C(=O)O)cc2)cc1` (stereo not drawn) [Compound A-19, 2-methyl-3-(4-((4-propylphenyl)sulfonamido)phenyl)propanoic acid], the Inhibition was “B (B is inhibition from 20% to 30%)”.
In the case of `O=S(=O)(Nc1ncccn1)c1ccc(-c2ccccc2)cc1` [Compound A-20, N-(pyrimidin-2-yl)-[1,1′-biphenyl]-4-sulfonamide], the Inhibition is reported as “D (D is inhibition of 0% to 10%)”.
In the case of `CCCc1ccc(S(=O)(=O)Nc2ccccc2-n2cnnc2C)cc1` [Compound A-22, N-(2-(3-methyl-4H-1,2,4-triazol-4-yl)phenyl)-4-propylbenzenesulfonamide], the Inhibition is reported as “D (D is inhibition of 0% to 10%)”.
With `Cn1ccnc(NS(=O)(=O)c2ccc(-c3ccccc3)cc2)c1=O` [Compound A-23, N-(4-methyl-3-oxo-3,4-dihydropyrazin-2-yl)-[1,1′-biphenyl]-4-sulfonamide] the Inhibition was “B (B is inhibition from 20% to 30%)”.
With `N#Cc1cnc(Cl)c(NS(=O)(=O)c2ccc(-c3ccccc3)cc2)c1` [Compound A-24, N-(2-chloro-5-cyanopyridin-3-yl)-[1,1′-biphenyl]-4-sulfonamide] the Inhibition was “C (C is inhibition from 10% to 20%)”.
For `CCCc1ccc(S(=O)(=O)Nc2cc(C(=O)OC)ccc2S(N)(=O)=O)cc1` [Compound A-25, methyl 3-((4-propylphenyl)sulfonamido)-4-sulfamoylbenzoate], the Inhibition was “D (D is inhibition of 0% to 10%)”.
With `CCCc1ccc(S(=O)(=O)Nc2ccc(O)c(C(=O)O)c2)cc1` [Compound A-26, 2-hydroxy-5-((4-propylphenyl)sulfonamido) benzoic acid] the Inhibition was “B (B is inhibition from 20% to 30%)”.
With `CCCc1ccc(S(=O)(=O)Nc2ccccc2Sc2nncn2C)cc1` [Compound A-27, N-(2-((4-methyl-4H-1,2,4-triazol-3-yl)thio)phenyl)-4-propylbenzenesulfonamide] the Inhibition was “D (D is inhibition of 0% to 10%)”.
For `CCCc1ccc(S(=O)(=O)Nc2cccc(-c3nnnn3C3CC3)c2)cc1` [Compound A-28, N-(3-(1-cyclopropyl-1H-tetrazol-5-yl)phenyl)-4-propylbenzenesulfonamide], the Inhibition was “D (D is inhibition of 0% to 10%)”.
In the case of `CCCc1ccc(S(=O)(=O)Nc2ccc(N3CCCS3(=O)=O)cc2)cc1` [Compound A-30, N-(4-(1,1-dioxidoisothiazolidin-2-yl)phenyl)-4-propylbenzenesulfonamide], the Inhibition is reported as “C (C is inhibition from 10% to 20%)”.
With `CCCc1ccc(S(=O)(=O)Nc2ccc(NC(=O)C3CC3)cc2)cc1` [Compound A-31, N-(4-((4-propylphenyl)sulfonamido)phenyl)cyclopropanecarbox-amide] the Inhibition was “D (D is inhibition of 0% to 10%)”.
In the case of `CCCc1ccc(S(=O)(=O)Nc2ccc(S(=O)(=O)CC)cc2)cc1` [Compound A-32, N-(4-(ethylsulfonyl)phenyl)-4-propylbenzenesulfonamide], the Inhibition is reported as “C (C is inhibition from 10% to 20%)”.
In the case of `NC1CCN(S(=O)(=O)c2ccc(-c3ccccc3)cc2)CC1` [Compound A-33, 1-([1,1′-biphenyl]-4-ylsulfonyl)piperidin-4-amine], the Inhibition is reported as “B (B is inhibition from 20% to 30%)”.
For `CCCc1ccc(S(=O)(=O)Nc2ccc(F)c(NC(C)=O)c2)cc1` [Compound A-35, N-(2-fluoro-5-((4-propylphenyl)sulfonamido)phenyl)acetamide], the Inhibition was “D (D is inhibition of 0% to 10%)”.
For `O=S(=O)(NCc1ccc2c(c1)OCO2)c1ccc(-c2ccccc2)cc1` [Compound A-36, N-(benzo[d][1,3]dioxol-5-ylmethyl)-[1,1′-biphenyl]-4-sulfonamide], the Inhibition was “A (A is inhibition above 30%)”.
In the case of `CCCc1ccc(S(=O)(=O)Nc2ccc(O)c(NC(C)=O)c2)cc1` [Compound A-38, N-(2-hydroxy-5-((4-propylphenyl)sulfonamido)phenyl)acetamide], the Inhibition is reported as “C (C is inhibition from 10% to 20%)”.
`CCCc1ccc(S(=O)(=O)Nc2ccccc2-n2cc(C(=O)OC)nn2)cc1` [Compound A-39, methyl 1-(2-((4-propylphenyl)sulfonamido)phenyl)-1H-1,2,3-triazole-4-carboxylate] was tested, and the Inhibition was “D (D is inhibition of 0% to 10%)”.
In the case of `CCCc1ccc(S(=O)(=O)Nc2ccc(-c3ccnc(C)n3)cc2)cc1` [Compound A-40, N-(4-(2-methylpyrimidin-4-yl)phenyl)-4-propylbenzenesulfonamide], the Inhibition is reported as “D (D is inhibition of 0% to 10%)”.
`CCCc1ccc(S(=O)(=O)Nc2ccccc2CC(=O)NC)cc1` [Compound A-41, N-methyl-2-(2-((4-propylphenyl)sulfonamido)phenyl)acetamide] was tested, and the Inhibition was “A (A is inhibition above 30%)”.
For `CCCc1ccc(S(=O)(=O)Nc2cccc(F)c2C(=O)O)cc1` [Compound A-42, 2-fluoro-6-((4-propylphenyl)sulfonamido) benzoic acid], the Inhibition was “B (B is inhibition from 20% to 30%)”.
In the case of `CCCc1ccc(S(=O)(=O)Nc2ccc(F)cc2C(=O)O)cc1` [Compound A-43, 5-fluoro-2-((4-propylphenyl)sulfonamido) benzoic acid], the Inhibition is reported as “C (C is inhibition from 10% to 20%)”.
`CCCc1ccc(S(=O)(=O)Nc2ccc(C(=O)O)cc2)cc1` [Compound A-44, 4-((4-propylphenyl)sulfonamido) benzoic acid] was tested, and the Inhibition was “D (D is inhibition of 0% to 10%)”.
In the case of `CCCc1ccc(S(=O)(=O)Nc2cc(OC)c(OC)cc2C(=O)O)cc1` [Compound A-45, 4,5-dimethoxy-2-((4-propylphenyl)sulfonamido) benzoic acid], the Inhibition is reported as “C (C is inhibition from 10% to 20%)”.
`CCCc1ccc(S(=O)(=O)Nc2ccc(CC(=O)O)cc2)cc1` [Compound A-46, 2-(4-((4-propylphenyl)sulfonamido)phenyl)acetic acid] was tested, and the Inhibition was “A (A is inhibition above 30%)”.
`CCCc1ccc(S(=O)(=O)Nc2cc(Cl)ccc2N2CCOCC2)cc1` [Compound A-47, N-(5-chloro-2-morpholinophenyl)-4-propylbenzenesulfonamide] was tested, and the Inhibition was “B (B is inhibition from 20% to 30%)”.
In the case of `CCCc1ccc(S(=O)(=O)Nc2ccccc2CC)cc1` [Compound A-48, N-(2-ethylphenyl)-4-propylbenzenesulfonamide], the Inhibition is reported as “B (B is inhibition from 20% to 30%)”.
For `CCCc1ccc(S(=O)(=O)Nc2cc(Cl)c(OC)cc2OC)cc1` [Compound A-49, N-(5-chloro-2,4-dimethoxyphenyl)-4-propylbenzenesulfonamide], the Inhibition was “D (D is inhibition of 0% to 10%)”.
In the case of `CCCc1ccc(S(=O)(=O)Nc2ccc(S(C)(=O)=O)cc2)cc1` [Compound A-50, N-(4-(methylsulfonyl)phenyl)-4-propylbenzenesulfonamide], the Inhibition is reported as “C (C is inhibition from 10% to 20%)”.
With `CCCc1ccc(S(=O)(=O)Nc2c(F)cc(F)cc2Br)cc1` [Compound A-51, N-(2-bromo-4,6-difluorophenyl)-4-propylbenzenesulfonamide] the Inhibition was “D (D is inhibition of 0% to 10%)”.
